This passage reports inhibition results from patent US20100022531A1, “NOVEL COMPOUNDS AS P2X7 MODULATORS AND USES THEREOF” (RENOVIS, INC., priority 2005, published 2010).

Structures are written as SMILES.

One assay has as its target T1, P2X7 receptor (Homo sapiens, UniProt Q99572).
T1 construct: host or cells: THP-1 cells differentiated with LPS and IFN-γ
T1 sequence (Q99572 1-595): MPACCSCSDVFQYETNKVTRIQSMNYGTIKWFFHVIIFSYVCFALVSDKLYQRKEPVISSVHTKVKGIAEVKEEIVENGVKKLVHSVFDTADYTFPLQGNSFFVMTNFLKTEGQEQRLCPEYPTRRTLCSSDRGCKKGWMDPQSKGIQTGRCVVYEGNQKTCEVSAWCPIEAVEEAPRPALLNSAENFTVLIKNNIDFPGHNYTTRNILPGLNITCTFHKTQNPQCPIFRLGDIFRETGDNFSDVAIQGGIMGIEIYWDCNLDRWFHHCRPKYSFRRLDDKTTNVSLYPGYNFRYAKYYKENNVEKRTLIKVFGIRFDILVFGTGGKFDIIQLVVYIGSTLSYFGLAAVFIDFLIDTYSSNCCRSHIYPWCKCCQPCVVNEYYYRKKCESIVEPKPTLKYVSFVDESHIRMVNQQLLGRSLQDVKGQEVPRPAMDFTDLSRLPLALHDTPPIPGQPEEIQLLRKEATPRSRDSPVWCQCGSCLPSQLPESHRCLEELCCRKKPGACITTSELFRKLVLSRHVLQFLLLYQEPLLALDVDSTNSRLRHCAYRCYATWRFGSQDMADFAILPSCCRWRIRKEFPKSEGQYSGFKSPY
Briefly: Alternate method for IL-1β release assay (differentiated THP-1 cells, BzATP-stimulated, ELISA). It is filed as cell-based. The following applies: P2X7; 0.1 μM compound (plus symbols); read-out: IL-1β % inhib @ 0.1 μM. Here is the method: Alternate Method for IL-1β Release Assay
THP-1 cells (ATCC Cat #285-IF-100) are plated in 96 well plates at a concentration of 200,000 cells per well and allowed to differentiate in RPMI-1640 media (ATCC Cat #30-2001) containing 10% FBS, 100 IU/mL penicillin, 100 ug/mL streptomycin, 100 ng/mL LPS and 100 ng/mL IFN-γ for 16 hours. Following differentiation, the cells are treated for an additional 2 hours in RPMI-1640 media containing 100 IU/mL penicillin, 100 ug/mL streptomycin and fresh LPS at 100 ng/mL. The cells are then pretreated for 30 minutes with the compound of interest at the appropriate concentration in RPMI media containing 100 IU/mL penicillin, 100 ug/mL streptomycin. Following the pretreatment 2′,3′-O-(4-benzoylbenzoyl)-adenosine 5′-triphosphate (Sigma Aldrich Cat# B6396) is added to a final concentration of 250 uM and the cells incubated for an additional 45 minutes. 30 uL of cell supernatant is then collected and IL-1β levels determined via ELISA (R&D systems Cat. # HSLB50) according to manufacturers recommendations using the Tecan Safire plate reader. Background adjusted IL-1β levels of drug treated and non-treated cells are used to calculate the percent inhibition.
As for `O=S(=O)(c1ccc(F)cc1F)N1CCc2c(ncnc2NCC23CC4CC(CC(C4)C2)C3)C1` [Compound 66], the inhibition at 0.1 µM was in the range of 25 to 50%.
On to `O=C(c1c(Cl)cccc1Cl)N1CCc2c(ncnc2NCC23CC4CC(CC(C4)C2)C3)C1` [Compound 75], for which the inhibition at 0.1 µM was greater than 75%.
Still for that read-out and setting: the same measure for `O=C(c1ccccc1)N1CCc2c(ncnc2NCC23CC4CC(CC(C4)C2)C3)C1` [Compound 77, {4-[(Adamantan-1-ylmethyl)-amino]-5,8-dihydro-6H-pyrido[3,4-d]pyrimidin-7-yl}-phenyl-methanone]: greater than 75%.

The assay is the same for the next values; noted with them: P2X7; 0.3 μM compound (asterisk symbols); read-out: IL-1β % inhib @ 0.3 μM.
With `O=S(=O)(c1ccccc1OC(F)(F)F)N1CCc2c(ncnc2NCC23CC4CC(CC(C4)C2)C3)C1` [Compound 55], the inhibition at 0.3 µM fell in the range of 0 to 25%.
Still for that read-out and setting: the same measure for `Cc1ccccc1S(=O)(=O)N1CCc2c(ncnc2NCC23CC4CC(CC(C4)C2)C3)C1` [Compound 56]: 25 to 50%.
With `O=S(=O)(c1ccc2c(c1)OCCO2)N1CCc2c(ncnc2NCC23CC4CC(CC(C4)C2)C3)C1` [Compound 57], the inhibition at 0.3 µM was in the range of 50 to 75%.
Still for that read-out and setting: the value for `O=S(=O)(c1ccc(C(F)(F)F)cc1)N1CCc2c(ncnc2NCC23CC4CC(CC(C4)C2)C3)C1` [Compound 58] was 0 to 25%.
As to `O=S(=O)(c1ccc(Cl)cc1F)N1CCc2c(ncnc2NCC23CC4CC(CC(C4)C2)C3)C1` [Compound 59], the inhibition at 0.3 µM lay in the range of 25 to 50%.
`O=S(=O)(c1cc(F)ccc1F)N1CCc2c(ncnc2NCC23CC4CC(CC(C4)C2)C3)C1` [Compound 60]: the inhibition at 0.3 µM was in the range of 25 to 50%.
Turning to `O=S(=O)(c1cc(Cl)ccc1Cl)N1CCc2c(ncnc2NCC23CC4CC(CC(C4)C2)C3)C1` [Compound 61], the inhibition at 0.3 µM fell in the range of 50 to 75%.
As for `O=S(=O)(c1cc(Cl)ccc1F)N1CCc2c(ncnc2NCC23CC4CC(CC(C4)C2)C3)C1` [Compound 62], the inhibition at 0.3 µM lay in the range of 25 to 50%.
In the case of `O=S(=O)(c1c(F)cccc1F)N1CCc2c(ncnc2NCC23CC4CC(CC(C4)C2)C3)C1` [Compound 63], the inhibition at 0.3 µM was greater than 75%.
The same measure, in the same setting: the same measure for `Cc1ccc(S(=O)(=O)N2CCc3c(ncnc3NCC34CC5CC(CC(C5)C3)C4)C2)cc1Cl` [Compound 64]: 25 to 50%; for `O=S(=O)(c1cc(Cl)cc(Cl)c1)N1CCc2c(ncnc2NCC23CC4CC(CC(C4)C2)C3)C1` [Compound 65]: 0 to 25%; for `O=S(=O)(c1c(Cl)cccc1Cl)N1CCc2c(ncnc2NCC23CC4CC(CC(C4)C2)C3)C1` [Compound 67]: greater than 75%.
The same measure, in the same setting: the same measure for `O=S(=O)(c1ccc(F)cc1Cl)N1CCc2c(ncnc2NCC23CC4CC(CC(C4)C2)C3)C1` [Compound 68]: 0 to 25%.
Regarding `Cc1ccc(F)cc1S(=O)(=O)N1CCc2c(ncnc2NCC23CC4CC(CC(C4)C2)C3)C1` [Compound 69], the inhibition at 0.3 µM is 0 to 25%.
On to `CC(C)S(=O)(=O)N1CCc2c(ncnc2NCC23CC4CC(CC(C4)C2)C3)C1` [Compound 70], for which the inhibition at 0.3 µM is 50 to 75%.
The same measure, in the same setting: the same measure for `COc1ccc(C)cc1S(=O)(=O)N1CCc2c(ncnc2NCC23CC4CC(CC(C4)C2)C3)C1` [Compound 71]: 25 to 50%.
For the compound `COc1ccc(OC)c(S(=O)(=O)N2CCc3c(ncnc3NCC34CC5CC(CC(C5)C3)C4)C2)c1` [Compound 72], the inhibition at 0.3 µM was in the range of 25 to 50%.
The same measure, in the same setting: the value for `Cc1cc(C)cc(S(=O)(=O)N2CCc3c(ncnc3NCC34CC5CC(CC(C5)C3)C4)C2)c1` [Compound 73] was 0 to 25%; that for `N#Cc1ccccc1S(=O)(=O)N1CCc2c(ncnc2NCC23CC4CC(CC(C4)C2)C3)C1` [Compound 74] was 25 to 50%; that for `COc1ccc(CC(=O)N2CCc3c(ncnc3NCC34CC5CC(CC(C5)C3)C4)C2)cc1` [Compound 80] was greater than 75%.
Turning to `O=C(Cc1ccccc1)N1CCc2c(ncnc2NCC23CC4CC(CC(C4)C2)C3)C1` [Compound 81], the inhibition at 0.3 µM fell in the range of 50 to 75%.
Same read-out and setting: the value for `O=C(c1ccc(Cl)cc1)N1CCc2c(ncnc2NCC23CC4CC(CC(C4)C2)C3)C1` [Compound 82] was 25 to 50%.
